Values of other authors as cited in patent publication US20010046961A1, “Method for the treatment of solid tumors by albumin microparticles incorporating paclitaxel” (ACS DOBFAR S.p.A., priority 2000, published 2001).

System: head and neck cancer
Settings: traditional treatment with Paclitaxel, for example head and neck cancer

CC(=O)O[C@H]1C(=O)[C@@]2(C)[C@H]([C@H](OC(=O)c3ccccc3)[C@]3(O)C[C@H](OC(=O)[C@H](O)[C@@H](NC(=O)c4ccccc4)c4ccccc4)C(C)=C1C3(C)C)[C@]1(OC(C)=O)CO[C@@H]1C[C@@H]2O [Paclitaxel]
treatment response percentage: 40%
